3 substances from US20260241043A1, “Carrier Peptide Fragment and Use Thereof” (TOAGOSEI CO., LTD., priority 2022, published 2026) can be followed below.

Primed or numbered codes have the meaning given here. FAM″ = C-terminal FAM dye

This experiment has as its system NSC-34 cells. As to the kind of experiment: Evaluation on cell membrane permeability by flow cytometry. The experiment is classed as cell-based, mouse. The settings on record: 10 μM additive, 0.5% DMSO, 20 hours incubation at 37° C., fluorescence detector FL2. On the procedure: As the eukaryotic cells, NSC-34 cells (mouse motor neuron-like hybrid cell line) were used and the cell membrane permeability of the constructs 1 to 3 was analyzed. In Examples 1 to 3, the prepared samples 1 to 3 were used, respectively, and in Example 4, a FAM solution was used.
The NSC-34 cells were cultured in 10% fetal bovine serum (FBS)-containing Dulbecco's modified Eagle's medium (DMEM (Cat No. 044-29765, manufactured by FUJIFILM Wako Pure Chemical Corporation)), which is a normal culture medium.
The NSC-34 cells that adhered to a culture plate were cleaned with PBS and then, a 0.25%-trypsin/EDTA solution was added thereto, and incubation was performed for three minutes at 37° C. After the incubation, the aforementioned 10% FBS-containing DMEM was added to deactivate trypsin and then, five-minute centrifugal separation was performed at 150×g to precipitate the cells. After the supernatant generated by the centrifugal separation was removed, the 10% FBS-containing DMEM was added to the precipitate (cell pellet) to prepare a cell suspension of about 2× 10^5 cells/mL. The cell suspension was added by 1 mL to a well of a commercially available six-hole (well) plate (manufactured by AGC TECHNO GLASS Co., Ltd.) so as to seed the cell (about 2× 10^5 cells/well). In addition, the 2 mM sample solution 1 was diluted with the 10% FBS-containing DMEM to prepare the sample solution 1 in which the concentration of the sample 1 was 20 μM. […]
Regarding the obtained cells (cell pellet), the cell membrane permeability of the sample 1 was analyzed using a flow cytometer. […]
Using the aforementioned flow cytometer, gating based on forward scatter (FSC) and side scatter (SSC) was performed to set a gate about a cell group to be analyzed, and the fluorescence intensity was measured about the cell group in this gate. […] The fluorescence intensity was measured using a fluorescence detector FL2 of the flow cytometer (optimum detection wavelength around 543 nm) capable of detecting the fluorescence wavelength of FAM. […]
(In flow cytometry, cells or beads pass a laser one at a time.)
As to Ac-rKKrNSKrLTrKK-FAM [Example 2], the “MFI (median fluorescence intensity)” value was 37.7.
To Ac-RkkRNSkRLTRkk-FAM [Example 3] belongs 27.3; to “Ac-RKKRNSKRLTRKK-FAM (Ac-RKKRNSKRLTRKK-{FAM″}) [Example 1, N-terminally acetylated peptide 1 (all L-form) with FAM fluorescent dye bonded to the C-terminus]”, 14.6.
